Results: the supplement of paper PMC12463676, “Small-molecule dissolution of stress granules by redox modulation benefits ALS models” (Nature Chemical Biology, 2025)

What was measured:
lipoamide = compound: NC(=O)CCCCC1CCSS1 [lipoamide]; assay: thermal stability z-score vs DMSO; higher = more thermally stabilized by treatment; conditions: HeLa, lipoamide concentration 100 µM
Method: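 Cellular thermal proteome profiling in HeLa cells. Cells were treated with 100 µM lipoamide for 1 h, with or without 1 mM arsenate for a further 1 h, then heated to ten temperatures (37-66.3 °C), and soluble protein was quantified by TMT mass spectrometry relative to 0.1% DMSO controls. The thermal stability score (sum of log2 fold changes minus the abundance score) was transformed to a z-score; mean of n = 3 experiments.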

potassium arsenate = compound: O=[As]([O-])(O)O.[K+] [potassium arsenate]; assay: as above; conditions: HeLa; arsenate concentration 1 mM
Method: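 Cellular thermal proteome profiling in HeLa cells treated with 1 mM arsenate for 1 h (DMSO pretreatment), heated to ten temperatures (37-66.3 °C). Soluble protein was quantified by TMT mass spectrometry relative to DMSO controls; the thermal stability score was transformed to a z-score; mean of n = 3 experiments.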

[1] = arsenate co-treatment: 1 mM arsenate 1 h
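Also: each temperature applied for 3 min, abundance score taken as mean log2 fold change at the two lowest temperatures, z-score obtained by mean subtraction and division by SD.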

Sequence of UniProt Q9H446 (Q9H446 whole entry): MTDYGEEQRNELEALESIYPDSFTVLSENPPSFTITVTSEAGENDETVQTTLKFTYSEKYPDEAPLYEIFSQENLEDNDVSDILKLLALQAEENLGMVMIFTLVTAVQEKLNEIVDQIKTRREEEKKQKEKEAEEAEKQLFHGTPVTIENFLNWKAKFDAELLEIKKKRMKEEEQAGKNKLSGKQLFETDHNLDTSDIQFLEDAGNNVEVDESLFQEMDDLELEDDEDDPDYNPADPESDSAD
Sequence of UniProt O00442 (O00442 whole entry): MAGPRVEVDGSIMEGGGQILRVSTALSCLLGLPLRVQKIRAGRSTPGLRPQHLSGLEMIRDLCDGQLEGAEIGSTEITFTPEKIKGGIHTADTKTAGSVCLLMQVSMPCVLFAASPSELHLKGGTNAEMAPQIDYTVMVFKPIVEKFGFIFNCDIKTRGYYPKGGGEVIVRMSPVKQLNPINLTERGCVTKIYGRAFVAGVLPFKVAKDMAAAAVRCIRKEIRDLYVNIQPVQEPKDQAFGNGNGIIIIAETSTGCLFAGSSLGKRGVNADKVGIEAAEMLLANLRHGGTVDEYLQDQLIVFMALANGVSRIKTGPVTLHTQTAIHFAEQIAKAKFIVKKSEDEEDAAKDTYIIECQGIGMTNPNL
Sequence of UniProt Q9Y3Z3 (Q9Y3Z3 whole entry): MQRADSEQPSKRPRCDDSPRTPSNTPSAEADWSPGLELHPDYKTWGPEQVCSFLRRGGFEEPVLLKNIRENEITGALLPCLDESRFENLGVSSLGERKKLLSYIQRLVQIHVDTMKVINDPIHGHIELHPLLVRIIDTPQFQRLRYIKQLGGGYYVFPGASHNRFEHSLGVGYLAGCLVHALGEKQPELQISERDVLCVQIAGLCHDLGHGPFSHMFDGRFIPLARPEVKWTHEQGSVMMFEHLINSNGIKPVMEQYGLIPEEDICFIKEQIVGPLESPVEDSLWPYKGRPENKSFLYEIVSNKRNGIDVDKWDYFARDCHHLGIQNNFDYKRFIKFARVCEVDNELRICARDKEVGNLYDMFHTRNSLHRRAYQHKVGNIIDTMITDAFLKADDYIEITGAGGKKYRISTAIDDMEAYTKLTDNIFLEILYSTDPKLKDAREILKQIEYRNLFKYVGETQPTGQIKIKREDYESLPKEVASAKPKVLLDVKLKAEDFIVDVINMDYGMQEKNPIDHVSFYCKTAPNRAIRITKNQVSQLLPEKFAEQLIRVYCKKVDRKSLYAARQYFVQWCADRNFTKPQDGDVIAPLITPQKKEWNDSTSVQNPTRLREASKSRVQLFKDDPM
Sequence of UniProt Q9Y230 (Q9Y230 whole entry): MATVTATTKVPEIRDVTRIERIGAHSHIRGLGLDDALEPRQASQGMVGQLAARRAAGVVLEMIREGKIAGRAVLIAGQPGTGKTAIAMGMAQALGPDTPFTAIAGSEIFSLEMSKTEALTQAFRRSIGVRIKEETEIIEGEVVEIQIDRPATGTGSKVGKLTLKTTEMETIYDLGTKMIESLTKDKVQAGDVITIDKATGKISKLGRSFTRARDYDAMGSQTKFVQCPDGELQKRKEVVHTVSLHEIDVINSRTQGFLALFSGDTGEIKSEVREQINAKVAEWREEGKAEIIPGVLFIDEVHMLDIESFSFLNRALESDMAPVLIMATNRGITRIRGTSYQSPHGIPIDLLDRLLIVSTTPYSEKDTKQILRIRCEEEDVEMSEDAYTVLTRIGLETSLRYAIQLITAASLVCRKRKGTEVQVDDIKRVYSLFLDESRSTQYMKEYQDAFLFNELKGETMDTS
Sequence of UniProt Q6PCB5 (Q6PCB5 whole entry): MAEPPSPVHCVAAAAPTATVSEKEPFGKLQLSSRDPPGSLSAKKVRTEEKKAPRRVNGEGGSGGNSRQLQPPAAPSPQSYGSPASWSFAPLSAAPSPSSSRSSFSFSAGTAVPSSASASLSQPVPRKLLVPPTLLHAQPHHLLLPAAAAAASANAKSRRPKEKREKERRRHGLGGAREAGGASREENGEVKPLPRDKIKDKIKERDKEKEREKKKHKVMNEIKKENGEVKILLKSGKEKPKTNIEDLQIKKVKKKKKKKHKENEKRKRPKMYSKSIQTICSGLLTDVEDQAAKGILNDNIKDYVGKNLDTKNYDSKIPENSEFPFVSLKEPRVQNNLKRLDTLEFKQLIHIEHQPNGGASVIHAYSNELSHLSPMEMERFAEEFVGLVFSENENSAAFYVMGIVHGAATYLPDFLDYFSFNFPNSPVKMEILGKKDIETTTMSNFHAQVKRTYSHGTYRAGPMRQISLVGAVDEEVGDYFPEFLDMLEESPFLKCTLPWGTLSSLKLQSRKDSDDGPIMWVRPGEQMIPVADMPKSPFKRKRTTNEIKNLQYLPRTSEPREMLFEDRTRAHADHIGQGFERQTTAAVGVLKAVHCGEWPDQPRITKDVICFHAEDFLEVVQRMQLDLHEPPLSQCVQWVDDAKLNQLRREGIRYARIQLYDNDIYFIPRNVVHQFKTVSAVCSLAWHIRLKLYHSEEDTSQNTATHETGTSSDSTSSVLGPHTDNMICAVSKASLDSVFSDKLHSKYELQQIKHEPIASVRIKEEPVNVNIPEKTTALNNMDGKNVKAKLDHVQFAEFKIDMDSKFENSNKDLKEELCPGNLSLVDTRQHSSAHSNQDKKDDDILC
Sequence of UniProt Q9NTJ5 (Q9NTJ5 whole entry): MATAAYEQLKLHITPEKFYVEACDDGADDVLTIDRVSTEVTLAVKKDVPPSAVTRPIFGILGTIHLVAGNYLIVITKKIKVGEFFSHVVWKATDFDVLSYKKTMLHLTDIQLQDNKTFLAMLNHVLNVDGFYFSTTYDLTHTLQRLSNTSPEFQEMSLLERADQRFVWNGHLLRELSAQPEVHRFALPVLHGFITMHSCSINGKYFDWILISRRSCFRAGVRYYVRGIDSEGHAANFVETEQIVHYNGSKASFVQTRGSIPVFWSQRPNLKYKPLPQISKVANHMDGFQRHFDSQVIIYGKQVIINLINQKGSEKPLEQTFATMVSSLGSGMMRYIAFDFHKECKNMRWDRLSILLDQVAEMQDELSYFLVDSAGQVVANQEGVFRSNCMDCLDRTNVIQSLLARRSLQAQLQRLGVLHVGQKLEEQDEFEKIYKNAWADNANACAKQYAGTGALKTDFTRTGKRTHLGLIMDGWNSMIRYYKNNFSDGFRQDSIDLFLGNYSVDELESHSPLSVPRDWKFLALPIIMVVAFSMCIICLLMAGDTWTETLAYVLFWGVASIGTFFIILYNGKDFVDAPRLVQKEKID
Sequence of UniProt Q99584 (Q99584 whole entry): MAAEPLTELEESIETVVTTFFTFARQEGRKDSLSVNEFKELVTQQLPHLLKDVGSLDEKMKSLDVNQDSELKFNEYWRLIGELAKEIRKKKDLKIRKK
Sequence of UniProt Q8N488 (Q8N488 whole entry): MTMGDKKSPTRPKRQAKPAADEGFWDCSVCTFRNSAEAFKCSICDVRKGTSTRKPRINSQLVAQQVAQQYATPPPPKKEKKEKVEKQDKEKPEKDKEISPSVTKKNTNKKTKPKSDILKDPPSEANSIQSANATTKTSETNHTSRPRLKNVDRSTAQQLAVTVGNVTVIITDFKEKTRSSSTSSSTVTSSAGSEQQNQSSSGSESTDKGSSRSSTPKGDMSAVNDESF
Sequence of UniProt Q96FQ6 (Q96FQ6 whole entry): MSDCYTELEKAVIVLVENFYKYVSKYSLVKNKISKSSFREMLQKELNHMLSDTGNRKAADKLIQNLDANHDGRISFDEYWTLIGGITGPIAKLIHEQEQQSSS
Sequence of UniProt O95197 (O95197 whole entry): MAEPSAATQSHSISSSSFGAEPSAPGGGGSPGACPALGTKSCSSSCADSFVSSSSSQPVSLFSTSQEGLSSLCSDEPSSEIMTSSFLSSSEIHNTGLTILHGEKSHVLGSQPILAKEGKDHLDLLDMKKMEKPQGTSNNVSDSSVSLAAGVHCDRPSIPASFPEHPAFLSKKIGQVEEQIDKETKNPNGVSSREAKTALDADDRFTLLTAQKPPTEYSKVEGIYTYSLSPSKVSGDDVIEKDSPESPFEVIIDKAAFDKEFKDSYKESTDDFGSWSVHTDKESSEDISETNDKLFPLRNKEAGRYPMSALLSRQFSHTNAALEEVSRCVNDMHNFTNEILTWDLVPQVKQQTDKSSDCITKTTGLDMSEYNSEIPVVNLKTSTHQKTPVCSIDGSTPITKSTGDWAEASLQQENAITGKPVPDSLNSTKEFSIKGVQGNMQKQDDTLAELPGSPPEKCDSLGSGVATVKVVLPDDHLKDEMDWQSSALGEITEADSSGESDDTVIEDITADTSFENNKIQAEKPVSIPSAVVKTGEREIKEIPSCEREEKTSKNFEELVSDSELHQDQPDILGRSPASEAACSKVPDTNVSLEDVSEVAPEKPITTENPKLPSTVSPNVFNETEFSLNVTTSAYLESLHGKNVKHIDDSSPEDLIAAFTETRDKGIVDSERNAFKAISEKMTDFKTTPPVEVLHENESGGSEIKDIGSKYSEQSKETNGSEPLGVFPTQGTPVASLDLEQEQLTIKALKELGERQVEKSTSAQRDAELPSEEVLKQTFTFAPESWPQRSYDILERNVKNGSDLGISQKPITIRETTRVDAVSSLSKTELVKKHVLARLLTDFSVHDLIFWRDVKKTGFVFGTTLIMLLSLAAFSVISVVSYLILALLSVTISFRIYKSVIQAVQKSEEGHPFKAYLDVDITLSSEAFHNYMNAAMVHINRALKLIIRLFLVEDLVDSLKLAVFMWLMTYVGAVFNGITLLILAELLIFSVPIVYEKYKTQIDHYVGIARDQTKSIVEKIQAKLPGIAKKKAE
Sequence of UniProt P57060 (P57060 whole entry): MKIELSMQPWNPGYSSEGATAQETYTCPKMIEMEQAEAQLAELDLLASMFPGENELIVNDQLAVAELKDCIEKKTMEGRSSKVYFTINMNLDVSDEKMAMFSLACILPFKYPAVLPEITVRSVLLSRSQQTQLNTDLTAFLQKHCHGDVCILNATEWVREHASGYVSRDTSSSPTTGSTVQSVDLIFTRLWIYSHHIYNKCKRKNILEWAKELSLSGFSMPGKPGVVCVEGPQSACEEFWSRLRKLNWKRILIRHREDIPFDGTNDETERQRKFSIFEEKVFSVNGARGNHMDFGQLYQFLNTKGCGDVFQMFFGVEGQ

Target	thermal stability z-score (lipoamide; [1])	thermal stability z-score (lipoamide; arsenate co-treatment: none)	thermal stability z-score (potassium arsenate)
RRP9 (UniProt O43818)	-0.195	0.108	-0.755
RRP12 (UniProt Q5JTH9)	0.612	0.819	0.0662
RRP15 (UniProt Q9Y3B9)	-0.279	-0.438	-0.817
RRS1 (UniProt Q15050)	1.32	-0.132	-2.24
RSBN1 (UniProt Q5VWQ0)	-0.421	-0.198	-0.387
RSBN1L (UniProt Q6PCB5)	-0.0324	-0.225	0.113
RSL1D1 (UniProt O76021)	0.414	-0.108	-0.48
RSL24D1 (UniProt Q9UHA3)	1.21	0.133	-3.91
RSPRY1 (UniProt Q96DX4)	0.302	0.576	-0.152
RSRC1 (UniProt Q96IZ7)	1.06	0.987	1.14
RSRC2 (UniProt Q7L4I2)	0.668	0.164	1.03
RSU1 (UniProt Q15404)	-0.465	-0.369	-1.38
RTCA (UniProt O00442)	0.213	0.21	-0.695
RTCB (UniProt Q9Y3I0)	0.445	0.0607	-1.21
RTF1 (UniProt Q92541)	0.13	0.0546	-0.323
RTFDC1 (UniProt Q9BY42)	-1.39	-0.367	-1.48
RTKN (UniProt Q9BST9)	-0.183	-0.084	-0.395
RTN3 (UniProt O95197)	0.112	0.0244	0.525
RTN4 (UniProt Q9NQC3)	0.244	0.711	0.413
RTN4IP1 (UniProt Q8WWV3)	-0.324	-0.26	0.0315
RTN4RL2 (UniProt Q86UN3)	-1.87	-1.25	0.417
RTTN (UniProt Q86VV8)	-0.0275	-0.0536	-0.117
RUFY1 (UniProt Q96T51)	-0.702	-0.00916	0.39
RUFY2 (UniProt Q8WXA3)	-0.19	-0.0853	-0.0152
RUSC1 (UniProt Q9BVN2)	0.0753	0.00504	-0.0614
RUVBL1 (UniProt Q9Y265)	-0.0828	0.115	-0.662
RUVBL2 (UniProt Q9Y230)	-0.408	-0.0917	-0.75
RWDD1 (UniProt Q9H446)	0.432	0.421	0.471

Target	thermal stability z-score (lipoamide; [1])	thermal stability z-score (lipoamide; arsenate co-treatment: none)	thermal stability z-score (potassium arsenate)
RWDD2B (UniProt P57060)	0.0612	-0.0257	-0.0179
RWDD4 (UniProt Q6NW29)	-0.526	-0.0479	0.261
RXRA (UniProt P19793)	0.08	0.208	-0.255
RXRB (UniProt P28702)	0.117	0.096	-0.458
RYBP (UniProt Q8N488)	-0.607	-0.174	-0.269
S100A4 (UniProt P26447)	-0.414	-0.145	-1.43
S100A6 (UniProt P06703)	1.78	0.967	1.15
S100A10 (UniProt P60903)	1.65	1.54	0.372
S100A11 (UniProt P31949)	1.19	1.12	0.639
S100A13 (UniProt Q99584)	0.758	1.06	0.67
S100A16 (UniProt Q96FQ6)	1.33	1.29	0.517
S100P (UniProt P25815)	0.367	-0.088	0.0845
SAAL1 (UniProt Q96ER3)	0.357	-0.345	0.336
SAC3D1 (UniProt A6NKF1)	-1.55	-1.63	-1.27
SACM1L (UniProt Q9NTJ5)	-0.145	-0.499	0.448
SACS (UniProt Q9NZJ4)	-0.17	-0.0653	0.0609
SAE1 (UniProt Q9UBE0)	-0.694	-0.826	-0.458
SAFB2 (UniProt Q14151)	1.41	0.112	-0.545
SAFB (UniProt Q15424)	2.61	0.651	0.0324
SAMD4B (UniProt Q5PRF9)	0.14	0.116	-0.143
SAMD9 (UniProt Q5K651)	-0.0476	-0.0624	-0.13
SAMHD1 (UniProt Q9Y3Z3)	-0.0165	0.3	0.738
SAMM50 (UniProt Q9Y512)	0.182	0.601	1.08
SAP18 (UniProt O00422)	0.465	0.0358	0.519
SAP30BP (UniProt Q9UHR5)	0.884	0.612	1.03
SAP130 (UniProt Q9H0E3)	-0.208	-0.267	-0.246
SAR1A (UniProt Q9NR31)	0.174	0.266	0.248
